Measured values published in US4250176A, “Piperazine derivatives” (priority 1979, dated 1981).
≈ marks a conversion by molar mass, not a printed value. Counter-ions that a name gives are not always drawn. Like-named read-outs stand apart in the source and are kept apart here.

Key:
[1] = system: Guinea-pig ileum strips, histamine-induced contraction; experiment: Anti-histamine activity in "vitro": histamine-induced spasms of guinea-pig ileum strips; type: cell-based; details: Cavia porcellus, 5 min, histamine 0.5 mg/liter, 5 minutes incubation, concentration giving significant inhibition (50%) of the contraction
Protocol: The histamine--(0.5 mg/liter) induced spasms are recorded Kymographically with an isotonic lever giving a 5-fold magnification.

[2] = system: histamine paw oedema in guinea pigs; experiment: Histamine paw oedema in guinea pigs; type: in vivo, guinea pig; details: Cavia porcellus, oral dose giving paw reaction below 10 units 10 minutes after 50 μg histamine s.p., 2 hours after dosing, read-out: Anaphylaxis in guinea pigs oral effective dose in mg/kg: Histamine oedema
Protocol: Guinea pigs, weighing between 400 and 500 g, are sensitized to ovalbumin by subplantar (s.p.) injection of 0.05 ml of antiserum in the left hind paw. The animals are then starved and orally treated, 24 hours after the sensitization, with saline (=control animals) or a particular dose of the compound under investigation. The histamine injection (at a dose of 50 μg) was given s.p. in the right hind paw 2 hours after the oral pretreatment with the compound.

[3] = system: Guinea pigs sensitized to ovalbumin (anaphylactic shock); experiment: Anaphylaxis in guinea pigs: protection against death after ovalbumin challenge (survival); type: in vivo, guinea pig; details: Cavia porcellus, estimated ED50, oral, protection against death after i.v. 0.6 mg ovalbumin, read-out: Anaphylaxis in guinea pigs oral effective dose in mg/kg: Survival
Protocol: The anti-anaphylactic and antihistaminic effects of the subject compounds (I) and salts thereof are studied "in vivo" in guinea pigs.
Guinea pigs, weighing between 400 and 500 g, are sensitized to ovalbumin by subplantar (s.p.) injection of 0.05 ml of antiserum in the left hind paw. The animals are then starved and orally treated, 24 hours after the sensitization, with saline (=control animals) or a particular dose of the compound under investigation.
The histamine injection (at a dose of 50 μg) was given s.p. in the right hind paw 2 hours after the oral pretreatment with the compound. The diameters of both hind paws are first measured before the histamine injection is given and again 10 minutes thereafter. The animals are challenged intravenously with 0.6 mg of ovalbumin 30 minutes after the histamine injection. All control animals develop typical primary anaphylactic shock symptoms (coughing, difficult breathing, convulsions) and 85% of these control animals die within 15 minutes after the ovalbumin injection. Protection against death is used as the criterion for possible drug effects and the estimated ED50 -value, i.e. the oral dose whereby the protection is observed in 50% of the guinea pigs, is listed in the tables below.

[4] = Table I-e, read-out: Histamine in "vitro" (ileum) effective dose
[5] = Table I-b, read-out: Histamine in "vitro" (ileum) effective conc.
[6] = Table I-a, read-out: Histamine in "vitro" (ileum) effective conc.

O=c1[nH]c2ccccc2n1CCCN1CCN(C(c2ccccc2)c2ccccn2)CC1 (stereo not drawn) [I-e: Ar1=C6H5, Ar2=2-pyridinyl, 1,3-dihydro-1-[3-{4-[phenyl(2-pyridinyl)methyl]-1-piperazinyl}propyl]-2H-benzimidazol-2-one]
IC50 [1, 4]: 0.16 µg/mL (≈ 0.374 µM)
minimal effective dose ([2]; Table I-e): 2.5 mg/kg

Clc1ccc2c(c1)nc(Cc1ccccc1)n2CCCN1CCN(C(c2ccccc2)c2ccccc2)CC1 [5-chloro-1-{3-[4-(diphenylmethyl)-1-piperazinyl]propyl}-2-(phenylmethyl)-1H-benzimidazole trihydrochloride.hydrate]
ED50 ([3]; Table I-b): 2.5 mg/kg

c1ccc(C(c2ccccc2)N2CCN(CCCn3c(C4CCCCC4)nc4ccccc43)CC2)cc1 [2-cyclohexyl-1-{3-[4-(diphenylmethyl)-1-piperazinyl]propyl}-1H-benzimidazole]
ED50 ([3]; Table I-b): 2.5 mg/kg
IC50 [1, 5]: ≥ 0.16 µg/mL
minimal effective dose ([2]; Table I-b): 2.5 mg/kg

CCc1nc2ccccc2n1CCCN1CCN(C(c2ccccc2)c2ccccc2)CC1 [I-b: M=C2H5, R1=H, (CH2)3, R6=H, R7=H, 1-{3-[4-(diphenylmethyl)-1-piperazinyl]propyl}-2-ethyl-1H-benzimidazole trihydrochloride.hydrate]
ED50 ([3]; Table I-b): 2.5 mg/kg
IC50 [1, 5]: 0.01 µg/mL
minimal effective dose ([2]; Table I-b): 2.5 mg/kg

O=c1[nH]c2ccccc2n1CCCN1CCN(C(c2ccccc2)c2ccc(Br)cc2)CC1 (stereo not drawn) [1-[3-{4-[(4-bromophenyl)phenylmethyl]-1-piperazinyl}propyl]-1,3-dihydro-2H-benzimidazol-2-one]
ED50 ([3]; Table I-a): < 2.5 mg/kg
IC50 [1, 6]: 0.16 µg/mL (≈ 0.317 µM)
minimal effective dose ([2]; Table I-a): < 2.5 mg/kg

CCOC(=O)CCn1c(=O)n(CCCN2CCN(C(c3ccccc3)c3ccccc3)CC2)c2ccccc21 [ethyl 3-{3-[4-(diphenylmethyl)-1-piperazinyl]propyl}-2,3-dihydro-2-oxo-1H-benzimidazole-1-propanoate dihydrochloride. dihydrate]
ED50 ([3]; Table I-a): 0.63 mg/kg
IC50 [1, 6]: 0.005 µg/mL
minimal effective dose ([2]; Table I-a): 0.63 mg/kg

O=c1[nH]c2ccccc2n1CCCN1CCN(C(c2ccncc2)c2ccc(F)cc2)CC1 (stereo not drawn) [I-e: Ar1=4-FC6H4, Ar2=4-pyridinyl, 1-[3-{4-[(4-fluorophenyl)(4-pyridinyl)methyl]-1-piperazinyl}propyl]-1,3-dihydro-2H-benzimidazol-2-one]
IC50 [1, 4]: 0.16 µg/mL (≈ 0.359 µM)
minimal effective dose ([2]; Table I-e): ≤ 2.5 mg/kg

O=c1sc2ccccc2n1CCCN1CCN(C(c2ccccc2)c2ccccc2)CC1 [I-c: Y=S, 3-{3-[4-(diphenylmethyl)-1-piperazinyl]propyl}-2(3H)-benzothiazolone dihydrochloride.hemihydrate]
ED50 ([3]; Table I-c): 1.25 mg/kg
IC50 ([1]; Table I-c, read-out: Histamine in "vitro" (ileum) effective conc.): 0.01 µg/mL
minimal effective dose ([2]; Table I-c): 1.25 mg/kg

C=C(C)n1c(=O)n(CCCN2CCN(C(c3ccccc3)c3ccccc3)CC2)c2ccccc21 [1-{3-[4-(diphenylmethyl)-1-piperazinyl]propyl}-1,3-dihydro-3-(1-methylethenyl)-2H-benzimidazol-2-one]
ED50 ([3]; Table I-a): 0.16 mg/kg
IC50 [1, 6]: 0.01 µg/mL (≈ 0.0214 µM)
minimal effective dose ([2]; Table I-a): 0.31 mg/kg

CC(CN1CCN(C(c2ccccc2)c2ccccc2)CC1)Cn1cnc2ccccc21 (stereo not drawn) [1-{3-[4-(diphenylmethyl)-1-piperazinyl]-2-methylpropyl}-1H-benzimidazole trihydrochloride.hemihydrate]
IC50 [1, 5]: 0.02 µg/mL

CNC(=O)n1c(=O)n(CCCN2CCN(C(c3ccccc3)c3ccccc3)CC2)c2ccccc21 [3-{3-[4-(diphenylmethyl)-1-piperazinyl]propyl}-2,3-dihydro-N-methyl-2-oxo-1H-benzimidazole-1-carboxamide]
IC50 [1, 6]: 0.02 µg/mL (≈ 0.0414 µM)

CCc1nc2cc(Cl)ccc2n1CCCN1CCN(C(c2ccccc2)c2ccccc2)CC1 [I-b: M=C2H5, R1=5-Cl, (CH2)3, R6=H, R7=H, 5-chloro-1-{3-[4-(diphenylmethyl)-1-piperazinyl]propyl}-2-ethyl-1H-benzimidazole trihydrochloride.hydrate]
IC50 [1, 5]: 0.01 µg/mL

Cc1ccc(C)c(C(c2ccccc2)N2CCN(CCCn3c(=O)[nH]c4ccccc43)CC2)c1 (stereo not drawn) [I-e: Ar1=C6H5, Ar2=2,5-(CH3)2C6H3, 1-[3-{4-[(2,5-dimethylphenyl)phenylmethyl]-1-piperazinyl}propyl]-1,3-dihydro-2H-benzimidazol-2-one]
IC50 [1, 4]: 0.16 µg/mL (≈ 0.352 µM)

O=c1n(CCCN2CCN(C(c3ccccc3)c3ccccc3)CC2)c2ccc(Cl)cc2n1-c1ccccc1 [5-chloro-1-{3-[4-(diphenylmethyl)-1-piperazinyl]propyl}-1,3-dihydro-3-phenyl-2H-benzimidazol-2-one dihydrochloride.hemihydrate]
IC50 [1, 6]: 0.08 µg/mL

c1ccc(-c2nc3ccccc3n2CCCN2CCN(C(c3ccccc3)c3ccccc3)CC2)cc1 [I-b: M=C6H5, R1=H, (CH2)3, R6=H, R7=H, 1-{3-[4-(diphenylmethyl)-1-piperazinyl]propyl}-2-phenyl-1H-benzimidazole]
IC50 [1, 5]: 0.08 µg/mL (≈ 0.164 µM)

O=c1[nH]c2ccccc2n1CCCN1CCN(C(c2ccccc2)c2cccnc2)CC1 (stereo not drawn) [I-e: Ar1=C6H5, Ar2=3-pyridinyl, 1,3-dihydro-1-[3-{4-[phenyl(3-pyridinyl)methyl]-1-piperazinyl}propyl]-2H-benzimidazol-2-one]
IC50 [1, 4]: 0.08 µg/mL (≈ 0.187 µM)
minimal effective dose ([2]; Table I-e): < 2.5 mg/kg

O=c1[nH]c2cccc(Cl)c2n1CCCN1CCN(C(c2ccccc2)c2ccccc2)CC1 [4-chloro-3-{3-[4-(diphenylmethyl)-1-piperazinyl]propyl}-1,3-dihydro-2H-benzimidazol-2-one]
ED50 ([3]; Table I-a): ≥ 2.5 mg/kg
IC50 [1, 6]: 0.08 µg/mL (≈ 0.174 µM)

CC(=O)N=c1[nH]c2ccccc2n1CCCN1CCN(C(c2ccccc2)c2ccccc2)CC1 [I-b: M=CH3CONH, R1=H, (CH2)3, R6=H, R7=H, N-[1-{3-[4-(diphenylmethyl)-1-piperazinyl]propyl}-1,3-dihydro-2H-benzimidazol-2-ylidene]acetamide]
ED50 ([3]; Table I-b): 2.5 mg/kg
IC50 [1, 5]: ≥ 0.16 µg/mL

Clc1ccc2nc(-c3ccccc3)n(CCCN3CCN(C(c4ccccc4)c4ccccc4)CC3)c2c1 [I-b: M=C6H5, R1=6-Cl, (CH2)3, R6=H, R7=H, 6-chloro-1-{3-[4-(diphenylmethyl)-1-piperazinyl]propyl}-2-phenyl-1H-benzimidazole]
ED50 ([3]; Table I-b): 2.5 mg/kg

Clc1ccc2c(c1)nc(C1CCCCC1)n2CCCN1CCN(C(c2ccccc2)c2ccccc2)CC1 [5-chloro-2-cyclohexyl-1-{5-[4-diphenylmethyl)-1-piperazinyl]propyl}-1H-benzimidazole]
ED50 ([3]; Table I-b): 0.63 mg/kg
minimal effective dose ([2]; Table I-b): 2.5 mg/kg

c1ccc(Cc2nc3ccccc3n2CCCN2CCN(C(c3ccccc3)c3ccccc3)CC2)cc1 [I-b: M=C6H5CH2, R1=H, (CH2)3, R6=H, R7=H, 1-{3-[4-(diphenylmethyl)-1-piperazinyl]propyl}-2-(phenylmethyl)-1H-benzimidazole trihydrochloride.trihydrate]
IC50 [1, 5]: ≥ 0.16 µg/mL

CCc1nc2ccccc2n1CCN1CCN(C(c2ccccc2)c2ccccc2)CC1 [I-b: M=C2H5, R1=H, (CH2)2, R6=H, R7=H, 1-{2-[4-(diphenylmethyl)-1-piperazinyl]ethyl}-2-ethyl-1H-benzimidazole trihydrochloride.hydrate]
IC50 [1, 5]: ≥ 0.16 µg/mL

Clc1ccc2nc(C3CCCCC3)n(CCCN3CCN(C(c4ccccc4)c4ccccc4)CC3)c2c1 [6-chloro-2-cyclohexyl-1-[3-[4-(diphenylmethyl)-1-piperazinyl]propyl}-1H-benzimidazole]
ED50 ([3]; Table I-b): 2.5 mg/kg

O=c1[nH]c2ccccc2n1CCCN1CCN(C(c2ccccc2)c2ccccc2Cl)CC1 (stereo not drawn) [1-[3-{4-[(2-chlorophenyl)phenylmethyl]-1-piperazinyl}-propyl]-1,3-dihydro-2H-benzimidazol-2-one]
IC50 [1, 6]: 0.08 µg/mL (≈ 0.174 µM)
